# Test system: 313798-341-R-J2-PDC spheroids, viability
# Assay: Anticancer human tumor 313798-341-R-J2-PDC patient-derived cervical squamous cell carcinoma cell line growth inhibition [PI3K]
# Settings: spheroids with HUVEC and MSC; for IC50: curve of first compound; for viability, T/C: stronger effect = lower value
# Outline: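 High-throughput combination screen: PI3K inhibitors crossed with targeted small molecules on complex spheroids of tumor cells, HUVEC and MSCs at 37 degrees C, 5% CO2. Top concentration was at or near clinical Cmax (otherwise 10 microM), with half-log decrements.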
# [1] = second compound 0.00316 µM, first compound 0.0316 µM
# [2] = second compound 0.00316 µM, first compound 0.1 µM
# [3] = second compound 0.00316 µM, first compound 0.316 µM
# [4] = second compound 0.00316 µM, first compound 1 µM
# [5] = second compound 0.00316 µM, first compound 3.16 µM
# [6] = second compound 0.00316 µM, first compound 10 µM
# [7] = second compound 0.01 µM, first compound 0.0316 µM
# [8] = second compound 0.01 µM, first compound 0.1 µM
# [9] = second compound 0.01 µM, first compound 0.316 µM
# [10] = second compound 0.01 µM, first compound 1 µM
# [11] = second compound 0.01 µM, first compound 3.16 µM
# [12] = second compound 0.01 µM, first compound 10 µM
# [13] = second compound 0.0316 µM, first compound 0.0316 µM
# [14] = second compound 0.0316 µM, first compound 0.1 µM
# [15] = second compound 0.0316 µM, first compound 0.316 µM
# [16] = second compound 0.0316 µM, first compound 1 µM
# [17] = second compound 0.0316 µM, first compound 3.16 µM
# [18] = second compound 0.0316 µM, first compound 10 µM
# [19] = second compound 0.1 µM, first compound 0.0316 µM
# [20] = second compound 0.1 µM, first compound 0.1 µM
# [21] = second compound 0.1 µM, first compound 0.316 µM
# [22] = second compound 0.1 µM, first compound 1 µM
# [23] = second compound 0.1 µM, first compound 3.16 µM
# [24] = second compound 0.1 µM, first compound 10 µM
# [25] = second compound 0.316 µM, first compound 0.0316 µM
# [26] = second compound 0.316 µM, first compound 0.1 µM
# [27] = second compound 0.316 µM, first compound 0.316 µM
# [28] = second compound 0.316 µM, first compound 1 µM
# [29] = second compound 0.316 µM, first compound 3.16 µM
# [30] = second compound 0.316 µM, first compound 10 µM
# [31] = second compound 1 µM, first compound 0.0316 µM
# [32] = second compound 1 µM, first compound 0.1 µM
# [33] = second compound 1 µM, first compound 0.316 µM
# [34] = second compound 1 µM, first compound 1 µM
# [35] = second compound 1 µM, first compound 3.16 µM
# [36] = second compound 1 µM, first compound 10 µM
# 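Note: spheroids exposed to compounds for seven days.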
# 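Throughout, for viability, T/C: 100% = DMSO vehicle control viability.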
smiles,measurement,setting,value
CCCS(=O)(=O)Nc1ccc(F)c(C(=O)c2c[nH]c3ncc(-c4ccc(Cl)cc4)cc23)c1F + COc1c(OCCCN2CCOCC2)ccc2c3n(c(=NC(=O)c4cnc(N)nc4)nc12)CCN3,IC50,second compound 0.00316 µM,6100 nM
same,IC50,second compound 0.01 µM,5990 nM
same,IC50,second compound 0.0316 µM,5160 nM
same,IC50,second compound 0.1 µM,110 nM
same,IC50,second compound 0.316 µM,< 31.6 nM
same,IC50,second compound 1 µM,< 31.6 nM
same,"viability, T/C",[1],109%
same,"viability, T/C",[2],98.6%
same,"viability, T/C",[3],99.6%
same,"viability, T/C",[4],92.3%
same,"viability, T/C",[5],95.5%
same,"viability, T/C",[6],15.7%
same,"viability, T/C",[7],89.1%
same,"viability, T/C",[8],96.2%
same,"viability, T/C",[9],103%
same,"viability, T/C",[10],98.6%
same,"viability, T/C",[11],97.1%
same,"viability, T/C",[12],12.5%
same,"viability, T/C",[13],68.7%
same,"viability, T/C",[14],94.1%
same,"viability, T/C",[15],86.5%
same,"viability, T/C",[16],83.8%
same,"viability, T/C",[17],78.1%
same,"viability, T/C",[18],12%
same,"viability, T/C",[19],47.9%
same,"viability, T/C",[20],54.2%
same,"viability, T/C",[21],48.4%
same,"viability, T/C",[22],41.4%
same,"viability, T/C",[23],33.9%
same,"viability, T/C",[24],15.7%
same,"viability, T/C",[25],16.7%
same,"viability, T/C",[26],18.7%
same,"viability, T/C",[27],19.1%
same,"viability, T/C",[28],20.5%
same,"viability, T/C",[29],22.4%
same,"viability, T/C",[30],12.7%
same,"viability, T/C",[31],13.2%
same,"viability, T/C",[32],12.4%
same,"viability, T/C",[33],14.6%
same,"viability, T/C",[34],14.3%
same,"viability, T/C",[35],19.8%
same,"viability, T/C",[36],9.24%
CC(C)NCC(C(=O)N1CCN(c2ncnc3c2C(C)CC3O)CC1)c1ccc(Cl)cc1 (stereo unspecified) + CC(Nc1ccc2c(c1)OCCn1cc(N3C(=O)OCC3C(F)F)nc1-2)C(N)=O,IC50,second compound 0.00316 µM,2250 nM
same,IC50,second compound 0.01 µM,1850 nM
same,IC50,second compound 0.0316 µM,2380 nM
same,IC50,second compound 0.1 µM,1910 nM
same,IC50,second compound 0.316 µM,805 nM
same,IC50,second compound 1 µM,74.9 nM
same,"viability, T/C",[1],107%
same,"viability, T/C",[2],94.9%
same,"viability, T/C",[3],81%
same,"viability, T/C",[4],68.6%
same,"viability, T/C",[5],40.5%
same,"viability, T/C",[6],25.9%
same,"viability, T/C",[7],107%
same,"viability, T/C",[8],103%
same,"viability, T/C",[9],93.5%
same,"viability, T/C",[10],61.1%
same,"viability, T/C",[11],41.1%
same,"viability, T/C",[12],30.2%
same,"viability, T/C",[13],106%
same,"viability, T/C",[14],92.5%
same,"viability, T/C",[15],82.2%
same,"viability, T/C",[16],69.5%
same,"viability, T/C",[17],41.3%
same,"viability, T/C",[18],25.6%
same,"viability, T/C",[19],121%
same,"viability, T/C",[20],99.6%
same,"viability, T/C",[21],80.9%
same,"viability, T/C",[22],62.5%
same,"viability, T/C",[23],39.5%
same,"viability, T/C",[24],27.2%
same,"viability, T/C",[25],84.6%
same,"viability, T/C",[26],84.2%
same,"viability, T/C",[27],62.3%
same,"viability, T/C",[28],46.7%
same,"viability, T/C",[29],35.4%
same,"viability, T/C",[30],26%
same,"viability, T/C",[31],53%
same,"viability, T/C",[32],50.2%
same,"viability, T/C",[33],42.1%
same,"viability, T/C",[34],38.2%
same,"viability, T/C",[35],30.5%
same,"viability, T/C",[36],25.5%
Cn1cnc2c(F)c(Nc3ccc(Br)cc3Cl)c(C(=O)NOCCO)cc21 + CC(Nc1ccc2c(c1)OCCn1cc(N3C(=O)OCC3C(F)F)nc1-2)C(N)=O,IC50,second compound 0.00316 µM,1200 nM
same,IC50,second compound 0.01 µM,841 nM
same,IC50,second compound 0.0316 µM,547 nM
same,IC50,second compound 0.1 µM,265 nM
same,IC50,second compound 0.316 µM,26.1 nM
same,IC50,second compound 1 µM,< 9.49 nM
same,"viability, T/C","second compound 0.00316 µM, first compound 0.00949 µM",87.2%
same,"viability, T/C","second compound 0.00316 µM, first compound 0.03 µM",107%
same,"viability, T/C","second compound 0.00316 µM, first compound 0.0949 µM",97.8%
same,"viability, T/C","second compound 0.00316 µM, first compound 0.3 µM",81.5%
same,"viability, T/C","second compound 0.00316 µM, first compound 0.949 µM",57.9%
same,"viability, T/C","second compound 0.00316 µM, first compound 3 µM",23.4%
same,"viability, T/C","second compound 0.01 µM, first compound 0.00949 µM",95.6%
same,"viability, T/C","second compound 0.01 µM, first compound 0.03 µM",103%
same,"viability, T/C","second compound 0.01 µM, first compound 0.0949 µM",96.1%
same,"viability, T/C","second compound 0.01 µM, first compound 0.3 µM",84.2%
same,"viability, T/C","second compound 0.01 µM, first compound 0.949 µM",46%
same,"viability, T/C","second compound 0.01 µM, first compound 3 µM",20.8%
same,"viability, T/C","second compound 0.0316 µM, first compound 0.00949 µM",97.6%
same,"viability, T/C","second compound 0.0316 µM, first compound 0.03 µM",92.8%
same,"viability, T/C","second compound 0.0316 µM, first compound 0.0949 µM",92.9%
same,"viability, T/C","second compound 0.0316 µM, first compound 0.3 µM",60.8%
same,"viability, T/C","second compound 0.0316 µM, first compound 0.949 µM",38.4%
same,"viability, T/C","second compound 0.0316 µM, first compound 3 µM",11.8%
same,"viability, T/C","second compound 0.1 µM, first compound 0.00949 µM",79.4%
same,"viability, T/C","second compound 0.1 µM, first compound 0.03 µM",69.9%
same,"viability, T/C","second compound 0.1 µM, first compound 0.0949 µM",66.2%
same,"viability, T/C","second compound 0.1 µM, first compound 0.3 µM",46%
same,"viability, T/C","second compound 0.1 µM, first compound 0.949 µM",29.9%
same,"viability, T/C","second compound 0.1 µM, first compound 3 µM",4.42%
same,"viability, T/C","second compound 0.316 µM, first compound 0.00949 µM",57.9%
same,"viability, T/C","second compound 0.316 µM, first compound 0.03 µM",46.5%
same,"viability, T/C","second compound 0.316 µM, first compound 0.0949 µM",41.3%
same,"viability, T/C","second compound 0.316 µM, first compound 0.3 µM",28.8%
same,"viability, T/C","second compound 0.316 µM, first compound 0.949 µM",16.7%
same,"viability, T/C","second compound 0.316 µM, first compound 3 µM",2.27%
same,"viability, T/C","second compound 1 µM, first compound 0.00949 µM",35.4%
same,"viability, T/C","second compound 1 µM, first compound 0.03 µM",34.2%
same,"viability, T/C","second compound 1 µM, first compound 0.0949 µM",30.1%
same,"viability, T/C","second compound 1 µM, first compound 0.3 µM",19.6%
same,"viability, T/C","second compound 1 µM, first compound 0.949 µM",9.79%
same,"viability, T/C","second compound 1 µM, first compound 3 µM",1.11%

# Source: PubChem BioAssay AID1963982 (Molecular Pharmacology Branch, DTP, NCI, 2024)
